The values below are quoted from earlier work in article PMC5061580 (Journal of biomolecular structure & dynamics, 2016).

One data set relates to blood-brain barrier. To be noted: in-situ rat brain perfusion; ref Kiptoo et al., 2011; On et al., 2014.
The test system of data set [1] is Madin-Darby canine kidney cells (MDCK). To be noted: in vitro cell culture monolayers; ref Makagiansar et al., 2001.

Take Ac-SHAVSS-NH2 [HAV6]: the “brain delivery of 14C-mannitol and 3H-daunomycin” value with blood-brain barrier is “increase the brain delivery”. Further, the “delivery of 14C-mannitol across MDCK monolayers” value in data set [1] is on record as “enhances”.
